Source: patent US20260078103A1, “ISOQUINOLONES AS PI3K INHIBITORS” (OnKure, Inc., priority 2022, published 2026)
Like-named read-outs stand apart in the source and are kept apart here.

What was measured:
Type in all cases: cell-based
[1] = test system: phosphorylation of AKT (pAKT) in SKBR3 cells express WT PI3Ka; assay: In vitro cell pAKT (Ser473) HTRF, SKBR3 cells; details: cellular pAKT
Outline: (§1)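 T47D cells (RPMI, 10% FBS, 0.2 units/mL insulin) or SKBR3 cells (McCoy's 5a, 10% FBS) were seeded onto 10-point compound dilutions and incubated 6 h at 37 °C. After lysis, pAKT was detected overnight by HTRF (Eu cryptate/d2). IC50 was fitted from % inhibition relative to 0.1% DMSO and 10 uM alpelisib controls.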

[2] = test system: T47D cells expressing mutant PI3Ka (H1047R); assay: In vitro cell proliferation, T47D cells (CellTiter-Glo); details: inhibition of proliferation, read-out: Avg T-47D EC50
Outline: (§2)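 1,500 cells/well seeded onto pre-stamped 10-pt dilution plates; T47D in RPMI + 10% FBS + insulin 0.2 units/mL, SKBR3 in McCoys 5a + 10% FBS. 72 h, 37 °C, 5% CO2. CTG readout. 0% = 0.1% DMSO, 100% = 10 uM Alpelisib; sigmoidal fit gives EC50.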

[3] = test system: SKBR3 cells express WT PI3Ka; assay: In vitro cell proliferation, SKBR3 cells (CellTiter-Glo); details: inhibition of proliferation
Outline: as §2

[4] = test system: phosphorylation of AKT (pAKT) in T47D cells expressing mutant PI3Ka (H1047R); assay: In vitro cell pAKT (Ser473) HTRF, T47D cells; details: cellular pAKT, T47D cells, mutant PI3Ka (H1047R), 6 hours, read-out: Avg T-47D IC50
Outline: as §1

Row | Compound | IC50 ([1]; Homo sapiens, SK-BR-3, 6 h) [µM] | EC50 ([2]; Homo sapiens, T47D, 72 h) [nM] | EC50 ([3]; Homo sapiens, SK-BR-3, 72 h) [µM] | IC50 ([4]; Homo sapiens, T47D, 6 h) [nM] | IC50 ([1]; 6 hours) [µM] | EC50 ([2]; 72 hours) [nM] | EC50 ([3]; 72 hours) [µM] | IC50 [4] [nM]
1 | Cc1cc([C@@H](C)Nc2ccccc2C(=O)O)c2cc(-c3ccc(C(C)(F)F)nc3)n(C)c(=O)c2c1 [Example 230] | > 15 | 1 to 500 | > 15 | 1 to 500 | – | – | – | –
2 | Cc1cc([C@@H](C)Nc2ccccc2C(=O)O)c2cc(N3CCN(c4cnn(C)n4)CC3)n(C)c(=O)c2c1 [Example 231] | 2 to 15 | 1 to 500 | 2 to 15 | 1 to 500 | – | – | – | –
3 | Cc1cc([C@@H](C)Nc2ccccc2C(=O)O)c2cc(N3CCN(c4ccn(C)n4)CC3)n(C)c(=O)c2c1 [Example 232] | 2 to 15 | 1 to 500 | 2 to 15 | 1 to 500 | – | – | – | –
4 | CNc1ccc(N2CCN(c3cc4c([C@@H](C)Nc5ccccc5C(=O)O)cc(C)cc4c(=O)n3C)CC2)cn1 [Example 233] | 2 to 15 | 1 to 500 | 2 to 15 | 1 to 500 | – | – | – | –
5 | COc1ncc(-c2cc3c([C@@H](C)Nc4ccccc4C(=O)O)cc(C)cc3c(=O)n2C)cn1 [Example 234] | > 15 | 1 to 500 | > 15 | 1 to 500 | – | – | – | –
6 | Cc1cc([C@@H](C)Nc2ccccc2C(=O)O)c2cc(N3CCN(c4cncnc4)CC3)n(C)c(=O)c2c1 [Example 235] | 2 to 15 | 1 to 500 | 2 to 15 | 500 to 2000 | – | – | – | –
7 | Cc1cc([C@@H](C)Nc2ccccc2C(=O)O)c2cc(N3CCN(c4cncnc4C)CC3)n(C)c(=O)c2c1 [Example 236] | 2 to 15 | 1 to 500 | 2 to 15 | 1 to 500 | – | – | – | –
8 | Cc1cc([C@@H](C)Nc2ccccc2C(=O)O)c2cc(N3CCN(c4cnc(C)nc4)CC3)n(C)c(=O)c2c1 [Example 237] | 2 to 15 | 1 to 500 | 2 to 15 | 1 to 500 | – | – | – | –
9 | CCOc1ncc(-c2cc3c([C@@H](C)Nc4ccccc4C(=O)O)cc(C)cc3c(=O)n2C)cc1F [Example 238] | > 15 | 1 to 500 | > 15 | 1 to 500 | – | – | – | –
10 | Cc1cc([C@@H](C)Nc2ccccc2C(=O)O)c2cc(-c3cnc(C4CC4)s3)n(C)c(=O)c2c1 [Example 239] | > 15 | 1 to 500 | > 15 | 1 to 500 | – | – | – | –
11 | Cc1cc([C@@H](C)Nc2ccccc2C(=O)O)c2cc(-c3cnc4c(c3)CCC4(F)F)n(C)c(=O)c2c1 [Example 240] | > 15 | 1 to 500 | > 15 | 1 to 500 | – | – | – | –
12 | Cc1cc([C@@H](C)Nc2ccccc2C(=O)O)c2cc(-c3ccncc3)n(C)c(=O)c2c1 [Example 241] | > 15 | 1 to 500 | > 15 | 1 to 500 | – | – | – | –
13 | Cc1cc([C@@H](C)Nc2ccccc2C(=O)O)c2cc(N3CCC(C)(C#N)C3)n(C)c(=O)c2c1 (some centres unmarked) [Example 243] | > 15 | 1 to 500 | > 15 | 1 to 500 | – | – | – | –
14 | Cc1cc([C@@H](C)Nc2ccccc2C(=O)O)c2cc(N3CCN(CC(F)(F)C4CC4)CC3)n(C)c(=O)c2c1 [Example 244] | – | – | – | – | 2 to 15 | 1 to 500 | > 15 | 1 to 500
15 | COc1ncc(-c2cc3c([C@@H](C)Nc4ccccc4C(=O)O)cc(C)cc3c(=O)n2C)cc1F [Example 246] | > 15 | 2000 to 15000 | > 15 | 2000 to 15000 | – | – | – | –
16 | COCc1ncc(-c2cc3c([C@@H](C)Nc4ccccc4C(=O)O)cc(C)cc3c(=O)n2C)cc1F [Example 247] | > 15 | 1 to 500 | > 15 | 1 to 500 | – | – | – | –

Row | Compound | IC50 ([1]; Homo sapiens, SK-BR-3, 6 h) [µM] | EC50 ([2]; Homo sapiens, T47D, 72 h) [nM] | EC50 ([3]; Homo sapiens, SK-BR-3, 72 h) [µM] | IC50 ([4]; Homo sapiens, T47D, 6 h) [nM] | IC50 ([1]; 6 hours) [µM] | EC50 ([2]; 72 hours) [nM] | EC50 ([3]; 72 hours) [µM] | IC50 [4] [nM]
17 | Cc1cc([C@@H](C)Nc2ccccc2C(=O)O)c2cc(-c3cnc4c(c3)CCC4F)n(C)c(=O)c2c1 (some centres unmarked) [Example 248] | > 15 | 500 to 2000 | > 15 | 1 to 500 | – | – | – | –
18 | Cc1cc([C@@H](C)Nc2ccccc2C(=O)O)c2cc(N3CCOCC3)n(C)c(=O)c2c1 [Example 249] | > 15 | 1 to 500 | > 15 | 1 to 500 | – | – | – | –
19 | Cc1cc([C@@H](C)Nc2ccccc2C(=O)O)c2cc(N3CCN(OC(C)C)CC3)n(C)c(=O)c2c1 [Example 250] | > 15 | 1 to 500 | > 15 | 1 to 500 | – | – | – | –
20 | Cc1cc([C@@H](C)Nc2ccccc2C(=O)O)c2cc(-c3cnc4c(c3)CCO4)n(C)c(=O)c2c1 [Example 252] | > 15 | 1 to 500 | > 15 | 1 to 500 | – | – | – | –
21 | Cc1cc([C@@H](C)Nc2ccccc2C(=O)O)c2cc(N3CCN(c4ncn(C)n4)CC3)n(C)c(=O)c2c1 [Example 253] | > 15 | 500 to 2000 | > 15 | 500 to 2000 | – | – | – | –
22 | Cc1cc([C@@H](C)Nc2ccccc2C(=O)O)c2cc(N3CCN(c4cn(C)nn4)CC3)n(C)c(=O)c2c1 [Example 254] | – | – | – | – | > 15 | 2000 to 15000 | > 15 | 2000 to 15000
23 | Cc1cc([C@@H](C)Nc2ccccc2C(=O)O)c2cc(N3CCN(c4nccnc4C)CC3)n(C)c(=O)c2c1 [Example 255] | 2 to 15 | 1 to 500 | 2 to 15 | 1 to 500 | – | – | – | –
24 | COc1ncccc1N1CCN(c2cc3c([C@@H](C)Nc4ccccc4C(=O)O)cc(C)cc3c(=O)n2C)CC1 [Example 256] | – | – | – | – | 2 to 15 | 1 to 500 | 2 to 15 | 1 to 500
25 | CCc1ncccc1N1CCN(c2cc3c([C@@H](C)Nc4ccccc4C(=O)O)cc(C)cc3c(=O)n2C)CC1 [Example 257] | 2 to 15 | 1 to 500 | 2 to 15 | 1 to 500 | – | – | – | –
26 | Cc1cc([C@@H](C)Nc2ccc(F)cc2C(=O)O)c2cc(N3CCN(CC(F)(F)F)CC3)n(C)c(=O)c2c1 [Example 259] | – | – | – | – | 2 to 15 | 1 to 500 | > 15 | 1 to 500
27 | Cc1cc([C@@H](C)Nc2ccccc2C(=O)O)c2cc(N3CCC(C)(O)CC3)n(C)c(=O)c2c1 [Example 260] | > 15 | 500 to 2000 | > 15 | 2000 to 15000 | – | – | – | –
28 | Cc1cc([C@@H](C)Nc2ccccc2C(=O)O)c2cc(N3CCN(CCC(F)(F)F)CC3)n(C)c(=O)c2c1 [Example 264] | – | – | – | – | > 15 | 1 to 500 | > 15 | 1 to 500
29 | Cc1cc([C@@H](C)Nc2ccccc2C(=O)O)c2cc(-c3cnc4ccoc4c3)n(C)c(=O)c2c1 [Example 265] | > 15 | 1 to 500 | > 15 | 1 to 500 | – | – | – | –
30 | Cc1cc([C@@H](C)Nc2ccccc2C(=O)O)c2cc(-c3cnc(C(C)(C)F)c(F)c3)n(C)c(=O)c2c1 [Example 268] | > 15 | 1 to 500 | > 15 | 1 to 500 | – | – | – | –
31 | Cc1cc([C@@H](C)Nc2ccc(F)cc2C(=O)O)c2cc(-c3cnc(C(C)(C)F)c(F)c3)n(C)c(=O)c2c1 [Example 269] | – | – | – | – | 2 to 15 | 1 to 500 | 2 to 15 | 1 to 500
32 | Cc1cc([C@@H](C)Nc2ccccc2C(=O)O)c2cc(-c3cnc4occc4c3)n(C)c(=O)c2c1 [Example 270] | > 15 | 500 to 2000 | > 15 | 1 to 500 | – | – | – | –
